Laboratory results reported in the supplement of paper PMC11208160.

Test: recombinant UMI read abundance after kanamycin selection (control-corrected) (log10(CPM+1)); higher = more efficient recombination; extreme values may be limits of the assay; sequences stand for … in AGTGCAGAGAAAATCGGCCAGTTTTCTCTGCCTGCAGTCCGCATGCCGTGGGACCCCTTGGGTTCTAACCTGTTGCCTAGATTTATGCAGCGGACTGCCTTTCTCCCAAAGTGATAAACCGG…AGGTTGGTTTCACT; site = the 11-nt donor
Outline: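 After plating on IPTG (0.07 mM) plus kanamycin, or unselected, in two replicates, recombinant UMIs were PCR-amplified across the donor–target junction and sequenced. The cells were Escherichia coli co-electroporated with a UMI-tagged donor and donor-binding-loop pair library and a target plasmid with a fixed target and T7-inducible IS621 bridge recombinase. Values are log10(CPM+1), with CPM averaged over replicates and scaled by control-derived factors.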
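Further: IS621 bridge recombinase in Escherichia coli cells against a fixed T5 target plasmid.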

| Sequence | recombinant UMI read abundance (log10) |
| --- | --- |
| CTCCCTACATGGACCGGTTTTCCCGGTAATCCGTATTTGAG (site CTCACTACTCT) | 0.0117 |
| CTCCCTACATGGACCGGTTTTCCCGGTAATCCGTATTTGAG (site CTCCATACTCT) | 0.00249 |
| CTCCCTACATGGACCGGTTTTCCCGGTAATCCGTATTTGAG (site CTCCCAACTCT) | 0.00701 |
| CTCCCTACATGGACCGGTTTTCCCGGTAATCCGTATTTGAG (site CTCCCCACTCT) | 0.0165 |
| CTCCCTACATGGACCGGTTTTCCCGGTAATCCGTATTTGAG (site CTCCCGACTCT) | 0.0234 |
| CTCCCTACATGGACCGGTTTTCCCGGTAATCCGTATTTGAG (site CTCCCTACTAT) | 0.455 |
| CTCCCTACATGGACCGGTTTTCCCGGTAATCCGTATTTGAG (site CTCCCTACTCA) | 0.0198 |
| CTCCCTACATGGACCGGTTTTCCCGGTAATCCGTATTTGAG (site CTCCCTACTCC) | 0.0101 |
| CTCCCTACATGGACCGGTTTTCCCGGTAATCCGTATTTGAG (site CTCCCTACTCG) | 0.00797 |
| CTCCCTACATGGACCGGTTTTCCCGGTAATCCGTATTTGAG (site CTCCCTACTCT) | 0.248 |
| CTCCCTACATGGACCGGTTTTCCCGGTAATCCGTATTTGAG (site CTCCCTACTGT) | 0 |
| CTCCCTACATGGACCGGTTTTCCCGGTAATCCGTATTTGAG (site CTCCCTACTTT) | 0.0136 |
| CTCCCTACATGGACCGGTTTTCCCGGTAATCCGTATTTGAG (site CTCCCTCCTCT) | 0.00493 |
| CTCCCTACATGGACCGGTTTTCCCGGTAATCCGTATTTGAG (site CTCCCTGCTCT) | 0.0117 |
| CTCCCTACATGGACCGGTTTTCCCGGTAATCCGTATTTGAG (site CTCCCTTCTCT) | 0.0166 |
| CTCCCTACATGGACCGGTTTTCCCGGTAATCCGTATTTGAG (site CTCCGTACTCT) | 0.0179 |
| CTCCCTACATGGACCGGTTTTCCCGGTAATCCGTATTTGAG (site CTCCTTACTCT) | 0.00587 |
| CTCCCTACATGGACCGGTTTTCCCGGTAATCCGTATTTGAG (site CTCGCTACTCT) | 0.0283 |
| CTCCCTACATGGACCGGTTTTCCCGGTAATCCGTATTTGAG (site CTCTCTACTCT) | 0.00795 |
| CTCCCTACATGGACCGGTTTTCCCGGTAATCCGTATTTGAG (site CTGCCTACTCT) | 0.0259 |
| CTCCCTACATGGACCGGTTTTCCCGGTAATCCGTATTTGAG (site CTTCCTACTCT) | 0.0102 |
| CTCCCTACATGGACCGGTTTTCCCGGTAATCCGTATTTGAG (site GTCCCTACTCT) | 0.0115 |
| CTCCCTACATGGACCGGTTTTCCCGGTAATCCGTATTTGAG (site TTCCCTACTCT) | 0.00609 |
| CTCCCTGCATGGACCGGTTTTCCCGGTAATCCGTATTTGAG (site CTCCCTACTCT) | 0.664 |
| CTCCCTGCATGGACCGGTTTTCCCGGTAATCCGTATTTGAG (site CTCCCTCCTCT) | 0.00848 |

| Sequence | recombinant UMI read abundance (log10) |
| --- | --- |
| CTCCCTGCATGGACCGGTTTTCCCGGTAATCCGTATTTGAG (site CTCCCTGCTCT) | 1.16 |
| CTCCCTGCATGGACCGGTTTTCCCGGTAATCCGTATTTGAG (site CTCCCTTCTCT) | 0.325 |
| CTCCCTTCATGGACCGGTTTTCCCGGTAATCCGTATTTGAG (site CTCCCTACTCT) | 0.0118 |
| CTCCCTTCATGGACCGGTTTTCCCGGTAATCCGTATTTGAG (site CTCCCTCCTCT) | 0.0285 |
| CTCCCTTCATGGACCGGTTTTCCCGGTAATCCGTATTTGAG (site CTCCCTGCTCT) | 0.00848 |
| CTCCCTTCATGGACCGGTTTTCCCGGTAATCCGTATTTGAG (site CTCCCTTCTCT) | 0.898 |
| CTCCGAACATGGACCGGTTTTCCCGGTAATCCGTATTTGCG (site CTCCGAACTCG) | 0.829 |
| CTCCGTGCATGGACCGGTTTTCCCGGTAATCCGTATTTGGC (site CTCCGTGCTGC) | 1.87 |
| CTCGAAACATGGACCGGTTTTCCCGGTAATCCGTATTTGCA (site CTAGAAACTTG) | 0 |
| CTCGAAACATGGACCGGTTTTCCCGGTAATCCGTATTTGCA (site CTCGAAACTTG) | 2.34 |
| CTCGAAACATGGACCGGTTTTCCCGGTAATCCGTATTTGCA (site CTGGAAACTTG) | 0 |
| CTCGAAACATGGACCGGTTTTCCCGGTAATCCGTATTTGCA (site CTTGAAACTTG) | 0 |
| CTCGAACCATGGACCGGTTTTCCCGGTAATCCGTATTTGAC (site CTCGAACCTGT) | 0 |
| CTCGAATCATGGACCGGTTTTCCCGGTAATCCGTATTTGAA (site CTCGAATCTTT) | 1.86 |
| CTCGAGTCATGGACCGGTTTTCCCGGTAATCCGTATTTGTG (site CTCGAGTCTCA) | 1.87 |
| CTCGATACATGGACCGGTTTTCCCGGTAATCCGTATTTGCT (site CTCGATACTAG) | 2.37 |
| CTCGCTACATGGACCGGTTTTCCCGGTAATCCGTATTTGAT (site CTCGCTACTAT) | 1.7 |
| CTCGGATCATGGACCGGTTTTCCCGGTAATCCGTATTTGGA (site CTCGGATCTTC) | 1.56 |
| CTCGGGCCATGGACCGGTTTTCCCGGTAATCCGTATTTGAG (site CTCGGGCCTCT) | 0 |
| CTCGGTCCATGGACCGGTTTTCCCGGTAATCCGTATTTGCA (site CACGGTCCTTG) | 0.779 |
| CTCGGTCCATGGACCGGTTTTCCCGGTAATCCGTATTTGCA (site CCCGGTCCTTG) | 1.6 |
| CTCGGTCCATGGACCGGTTTTCCCGGTAATCCGTATTTGCA (site CGCGGTCCTTG) | 0.00731 |
| CTCGGTCCATGGACCGGTTTTCCCGGTAATCCGTATTTGCA (site CTCGGTCCTTG) | 0.517 |
| CTCGTCGCATGGACCGGTTTTCCCGGTAATCCGTATTTGGG (site CTCGTCGCTCC) | 0.0128 |
| CTCTACACATGGACCGGTTTTCCCGGTAATCCGTATTTGCT (site ATCTACACTAG) | 0.294 |

| Sequence | recombinant UMI read abundance (log10) |
| --- | --- |
| CTCTACACATGGACCGGTTTTCCCGGTAATCCGTATTTGCT (site CACTACACTAG) | 1.63 |
| CTCTACACATGGACCGGTTTTCCCGGTAATCCGTATTTGCT (site CCCTACACTAG) | 2.09 |
| CTCTACACATGGACCGGTTTTCCCGGTAATCCGTATTTGCT (site CGCTACACTAG) | 0.891 |
| CTCTACACATGGACCGGTTTTCCCGGTAATCCGTATTTGCT (site CTATACACTAG) | 0.775 |
| CTCTACACATGGACCGGTTTTCCCGGTAATCCGTATTTGCT (site CTCAACACTAG) | 0 |
| CTCTACACATGGACCGGTTTTCCCGGTAATCCGTATTTGCT (site CTCCACACTAG) | 2.02 |
| CTCTACACATGGACCGGTTTTCCCGGTAATCCGTATTTGCT (site CTCGACACTAG) | 0.288 |
| CTCTACACATGGACCGGTTTTCCCGGTAATCCGTATTTGCT (site CTCTAAACTAG) | 0 |
| CTCTACACATGGACCGGTTTTCCCGGTAATCCGTATTTGCT (site CTCTACACTAA) | 0.362 |
| CTCTACACATGGACCGGTTTTCCCGGTAATCCGTATTTGCT (site CTCTACACTAC) | 0.0172 |
| CTCTACACATGGACCGGTTTTCCCGGTAATCCGTATTTGCT (site CTCTACACTAG) | 2.41 |
| CTCTACACATGGACCGGTTTTCCCGGTAATCCGTATTTGCT (site CTCTACACTAT) | 0.916 |
| CTCTACACATGGACCGGTTTTCCCGGTAATCCGTATTTGCT (site CTCTACACTCG) | 0.238 |
| CTCTACACATGGACCGGTTTTCCCGGTAATCCGTATTTGCT (site CTCTACACTGG) | 1.37 |
| CTCTACACATGGACCGGTTTTCCCGGTAATCCGTATTTGCT (site CTCTACACTTG) | 1.15 |
| CTCTACACATGGACCGGTTTTCCCGGTAATCCGTATTTGCT (site CTCTACCCTAG) | 0 |
| CTCTACACATGGACCGGTTTTCCCGGTAATCCGTATTTGCT (site CTCTACGCTAG) | 0.84 |
| CTCTACACATGGACCGGTTTTCCCGGTAATCCGTATTTGCT (site CTCTACTCTAG) | 0.78 |
| CTCTACACATGGACCGGTTTTCCCGGTAATCCGTATTTGCT (site CTCTAGACTAG) | 0.0131 |
| CTCTACACATGGACCGGTTTTCCCGGTAATCCGTATTTGCT (site CTCTATACTAG) | 0.00765 |
| CTCTACACATGGACCGGTTTTCCCGGTAATCCGTATTTGCT (site CTCTCCACTAG) | 0 |
| CTCTACACATGGACCGGTTTTCCCGGTAATCCGTATTTGCT (site CTCTGCACTAG) | 0.00734 |
| CTCTACACATGGACCGGTTTTCCCGGTAATCCGTATTTGCT (site CTCTTCACTAG) | 0.548 |
| CTCTACACATGGACCGGTTTTCCCGGTAATCCGTATTTGCT (site CTGTACACTAG) | 0.0999 |
| CTCTACACATGGACCGGTTTTCCCGGTAATCCGTATTTGCT (site CTTTACACTAG) | 0.644 |
